Source: patent US5141930A, “Fused thiophene compounds and uses thereof” (Yoshitomi Pharmaceutical Industries, Ltd., priority 1990, dated 1992)
Counter-ions that a name gives are not always drawn.

Legend:
[1] = tested on: serotonin 1A receptor; settings: background statement; cited from earlier work
[2] = tested on: serotonin 1A receptor of medulla oblongata; settings: through serotonin 1A receptor of medulla oblongata; cited from earlier work
[3] = biological target: T1, serotonin 2 (5-HT2) receptor (Rattus norvegicus, UniProt P14842); assay: Affinity for serotonin 2 (5-HT2) receptor, 3H-Ketanserin binding test; settings: rat cerebral cortex, 0.2 nM 3H-Ketanserin, pH 7.7, 37° C., 20 min
T1 construct: Freezed cerebral cortex dissected out from rats were homogenized; from tissue; host or cells: rat cerebral cortex, crude synaptosome fraction
T1 sequence (P14842 whole entry): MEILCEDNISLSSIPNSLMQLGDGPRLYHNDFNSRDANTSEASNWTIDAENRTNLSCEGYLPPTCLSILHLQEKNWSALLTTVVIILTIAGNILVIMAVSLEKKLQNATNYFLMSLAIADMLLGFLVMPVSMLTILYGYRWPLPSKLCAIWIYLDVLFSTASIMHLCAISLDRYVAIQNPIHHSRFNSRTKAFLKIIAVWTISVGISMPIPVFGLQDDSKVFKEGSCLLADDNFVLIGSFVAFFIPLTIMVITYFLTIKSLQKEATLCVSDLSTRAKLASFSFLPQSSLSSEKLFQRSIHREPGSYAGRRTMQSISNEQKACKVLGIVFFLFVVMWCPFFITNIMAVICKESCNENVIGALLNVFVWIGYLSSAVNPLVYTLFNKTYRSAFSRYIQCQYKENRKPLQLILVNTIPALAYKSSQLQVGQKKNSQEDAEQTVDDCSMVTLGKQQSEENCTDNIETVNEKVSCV
Protocol: Affinity for serotonin 2 (5-HT2) receptor (^3 H-Ketanserin binding test)
Preparation of crude synaptosome fraction and binding assay were conducted according to the method reported in Molecular Pharmacology, vol. 21, page 301, 1981 by Leysen et al.
Freezed cerebral cortex dissected out from rats were homogenized in 30 volumes of ice-cold 0.32 M sucrose solution and the suspension was centrifuged at 1000×g for 10 minutes at 10° C. The supernatant was centrifuged at 40,000×g for 20 minutes at 0° C. and the resulting pellet was homogenized in 30 volumes of ice-cold 50 mM Tris-HCl buffer (pH 7.7), and incubated at 37° C. for 10 minutes. The suspension was centrifuged at 40,000×g for 20 minutes at 0° C. again. The resulting pellet was homogenized in 100 volumes of the above buffer and provided as synaptosome membranes solution for the next assay.
To the aliquots (900 μl) of synaptosome membranes solution were added 50 μl of ^3 H-Ketanserin solution at the terminal concentration of 0.2 nM and 50 μl of test compound solution or 50 μl of its medium, and incubated at 37° C. for 20 minutes. After completion of the reaction, the mixture was rapidly vacuum-filtered through Whatman GF/B filters. The filters were washed three times with 5 ml of the above buffer, and then the radioactivity of the residue remaining on the filters was measured by liquid scintillation counter. Nonspecific binding was determined under the presence of 10 μM of mianserin. 50% Inhibition concentration (IC50) of the test compound was graphically determined and the inhibition constant (Ki value) was calculated.

[4] = biological target: T2, serotonin 1A (5-HT1A) receptor (Rattus norvegicus, UniProt P19327); assay: Affinity for serotonin 1A (5-HT1A) receptor, 3H-8-OH-DPAT binding test; settings: rat hippocampus, 0.2 nM 3H-8-OH-DPAT, pH 7.4, 37° C., 10 min
T2 sequence (P19327 1-422): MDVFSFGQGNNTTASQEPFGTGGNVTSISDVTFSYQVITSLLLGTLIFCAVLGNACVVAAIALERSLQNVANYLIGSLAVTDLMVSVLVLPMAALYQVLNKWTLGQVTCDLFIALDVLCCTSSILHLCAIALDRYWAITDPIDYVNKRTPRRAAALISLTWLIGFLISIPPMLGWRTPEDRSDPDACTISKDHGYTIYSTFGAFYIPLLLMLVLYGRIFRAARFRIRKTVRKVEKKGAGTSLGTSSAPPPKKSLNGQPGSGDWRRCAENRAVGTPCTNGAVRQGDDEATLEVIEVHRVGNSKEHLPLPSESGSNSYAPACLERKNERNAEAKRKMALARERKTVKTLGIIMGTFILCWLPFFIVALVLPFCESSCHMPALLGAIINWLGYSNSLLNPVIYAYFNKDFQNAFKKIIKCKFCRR
Protocol: Affinity for serotonin 1A (5-HT1A) receptor [^3 H-8-Hydroxy-2-dipropylaminotetralin (^3 H-8-OH-DPAT) binding test]
Preparation of crude synaptosome fraction and binding assay were conducted in accordance with the method reported in Journal of Neurochemistry, vol. 44, page 1685, 1985 by Hall et al. Freezed hippocampus dissected out from rats were homogenized in 40 volumes of ice-cold 50 mM Tris-HCl buffer (pH 7.4) and the suspension was centrifuged at 500×g for 10 minutes at 0° C. The supernatant was centrifuged at 40,000×g for 20 minutes at 0° C. and the resulting pellet was homogenized in 40 volumes of the above buffer and incubated at 37° C. for 10 minutes. After completion of reaction, the suspension was centrifuged at 40,000×g for 20 minutes at 0° C. The resulting pellet was washed twice by resuspension in 40 volumes of the above buffer and centrifugation, and finally suspended in 60 volumes of ice-cold 50 mM Tris-HCl buffer (pH 7.4) containing 1 mM manganese chloride for use in the next assay.
To the aliquots (900 μl) of synaptosome membranes solution were added 50 μl of tritiated 8-OH-DPAT solution at the terminal concentration of 0.2 nM and 50 μl of test compound solution or 50 μl of its medium, and incubated at 37° C. for 10 minutes. Then, to the mixture was added 5 ml of ice-cold 50 mM Tris-HCl buffer (pH 7.4), rapidly vacuum-filtered through Whatman GF/B filters and washed twice with 5 ml of the same buffer. The radioactivity of the residue remaining on the filters was measured by liquid scintillation counter. Nonspecific binding was determined under the presence of 10^-5 M serotonin (5-HT). 50% Inhibition concentration (IC50) of the test compound was graphically determined and the inhibition constant (Ki value) was calculated.

[5] = biological target: dopamine 2 (D2) receptor (Rattus norvegicus, UniProt P61169); assay: Affinity for dopamine 2 (D2) receptor, 3H-Spiperone binding test; settings: rat corpus striatum, 0.2 nM 3H-Spiperone, pH 7.1, 37° C., 20 min
Chain of dopamine 2 (D2) receptor (P61169 whole entry): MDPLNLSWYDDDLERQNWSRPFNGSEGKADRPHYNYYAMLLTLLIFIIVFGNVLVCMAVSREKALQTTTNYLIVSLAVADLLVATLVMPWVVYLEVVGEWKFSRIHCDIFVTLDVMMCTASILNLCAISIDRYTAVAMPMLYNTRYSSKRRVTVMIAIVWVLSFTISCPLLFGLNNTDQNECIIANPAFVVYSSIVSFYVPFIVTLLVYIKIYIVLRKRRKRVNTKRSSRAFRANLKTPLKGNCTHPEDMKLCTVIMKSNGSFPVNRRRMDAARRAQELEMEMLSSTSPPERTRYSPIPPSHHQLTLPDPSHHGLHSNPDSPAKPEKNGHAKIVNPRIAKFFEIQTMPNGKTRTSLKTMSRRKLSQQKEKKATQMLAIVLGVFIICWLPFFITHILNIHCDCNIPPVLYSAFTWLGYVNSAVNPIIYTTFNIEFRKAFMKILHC

[6] = tested on: Wistar rats; assay: Anxiolytic effect (Vogel type conflict test); format: in vivo; settings: Rattus norvegicus, po; orally 1 hour before test; lowest dose significantly different from 0.5% MC control, P<0.05; read-out: Anxiolytic effect MED (minimum effective dose)
Protocol: Anxiolytic effect (Vogel type conflict test) The test was conducted according to the method of Vogel et al. Wistar rats deprived of water for 72 hours before the test were used. The rats were placed in a plexiglas conflict test box (light compartment: 38×38×20 cm, dark compartment: 10×10×20 cm). A water bottle with a stainless steel spout was fitted to the middle of the outside, so that the spout extended 3 cm into the box at a height of 10 cm above the grid floor. A drinkometer circuit (Ohara Inc., Nihon Koden) was connected with the spout and the number of licks were counted. The rat was placed into the apparatus where an electric shock (0.2-0.3 mA, 0.3 sec) was given once every 20th lick. After the rat received first electric shock, the number of shocks were recorded during the subsequent 3 min. test period. The test compounds were administered orally 1 hour before the test. The minimum effective dose (MED) was defined as the lowest dose producing a statistically significant difference between 0.5% MC-treated (control) and test drug treated punished responses (One-way ANOVA test; P<0.05).

[7] = tested on: benzodiazepine receptor; settings: background statement; cited from earlier work
[8] = tested on: serotonin 1A receptor; settings: by an interaction with serotonin 1A receptor; cited from earlier work

Ki [3]	Ki [4]	Ki [5]	SMILES	affinity for serotonin 1A receptor [1]	effect on blood pressure [2]	minimal effective dose [6]	binding to benzodiazepine receptor [7]	antianxietic action [8]
990 nM	1.5 nM	120 nM	O=C1c2cc(Br)sc2SCCN1CCCCN1CCN(c2ncccn2)CC1 [Example 107, 7-bromo-2,3-dihydro-4-[4-(4-(2-pyrimidinyl)-1-piperazinyl)butyl]thieno[3,2-f]-1,4-thiazepin-5(4H)-one fumarate 1/2 hydrate]	–	–	–	–	–
1800 nM	4.1 nM	270 nM	CC(=O)c1cc2c(s1)SCCN(CCCCN1CCN(c3ncccn3)CC1)C2=O [Example 117, 7-acetyl-2,3-dihydro-4-[4-(4-(2-pyrimidinyl)-1-piperazinyl)butyl]thieno[3,2-f]-1,4-thiazepin-5(4H)-one]	–	–	5 mg/kg	–	–
1100 nM	1.4 nM	150 nM	CCc1cc2c(s1)SCCN(CCCCN1CCN(c3ncccn3)CC1)C2=O [Example 121, 7-ethyl-2,3-dihydro-4-[4-(4-(2-pyrimidinyl)-1-piperazinyl)thieno[3,2-f]-1,4-thiazepin-5(4H)-one hydrochloride 3/2 hydrate]	–	–	–	–	–
1200 nM	0.15 nM	6.2 nM	Cc1cc2c(s1)CCCN(CCCCNCC1COc3ccccc3O1)C2=O.Cl (centres unmarked) [Example 163, 5-[4-((1,4-Benzodioxan-2-yl)methylamino)butyl]-2-methyl-5,6,7,8-tetrahydro-4H-thieno[3,2-c]azepin-4-one hydrochloride]	–	–	2.5 mg/kg	–	–

Second part, the compound before the results:

SMILES	Ki [3]	Ki [4]	Ki [5]	affinity for serotonin 1A receptor [1]	effect on blood pressure [2]	minimal effective dose [6]	binding to benzodiazepine receptor [7]	antianxietic action [8]
CCCN(CCC)C1CCc2cccc(O)c2C1 (centres unmarked) [8-hydroxy-2-dipropylaminotetralin]	–	–	–	high affinity	lowers blood pressure	–	–	–
CC(=O)c1cc2c(s1)CCCN(CCCCN1CCN(c3ncccn3)CC1)C2=O [13 (maleate)]	1400 nM	1.6 nM	190 nM	–	–	1 mg/kg	–	–
Cc1cc2c(s1)CCCN(CCCCN1CCN(c3ncccn3)CC1)C2=O [15 (hydrochloride)]	1500 nM	2.1 nM	140 nM	–	–	2.5 mg/kg	–	–
O=C1c2cc(Br)sc2CCCN1CCCCN1CCN(c2ncccn2)CC1 [Example 11, 2-Bromo-5-[4-(4-(2-pyrimidinyl)-1l-piperazinyl)butyl]-5,6,7,8-tetrahydro-4H-thieno[3,2-c]azepin-4-one fumarate]	900 nM	0.89 nM	100 nM	–	–	–	–	–
CCc1cc2c(s1)CCCN(CCCCN1CCN(c3ncccn3)CC1)C2=O.O=C(O)/C=C/C(=O)O [Example 46, 2-ethyl-5-[4-(4-(2-pyrimidinyl)-1-piperazinyl)butyl]-5,6,7,8-tetrahydro-4H-thieno[3,2-c]azepin-4-one fumarate]	990 nM	1.3 nM	78 nM	–	–	≤ 1 mg/kg	–	–
O=C1c2ccsc2SCCN1CCCCN1CCN(c2ncccn2)CC1 [Example 103, 2,3-dihydro-4-[4-(4-(2-pyrimidinyl)-1-piperazinyl)butyl]thieno[3,2-f]-1,4-thiazepin-5( (4H)-one fumarate]	1800 nM	5.2 nM	1800 nM	–	–	–	–	–
CC(O)c1cc2c(s1)CCCN(CCCCN1CCN(c3ncccn3)CC1)C2=O.O=C(O)/C=C\C(=O)O (centres unmarked) [Example 155, 2-(1-Hydroxyethyl)-5-[4-(4-(2-pyrimidinyl)-1-piperazinyl)butyl]-5,6,7,8-tetrahydro-4H-thieno[3,2-c]azepin-4-one maleate]	2100 nM	0.81 nM	170 nM	–	–	2.5 mg/kg	–	–
O=C1CC2(CCCC2)CC(=O)N1CCCCN1CCN(c2ncccn2)CC1 [buspirone]	–	–	–	high affinity	–	–	not to bind	exhibits antianxietic action
